In assay [1] the test system is primigravid patients with subchorionic hematoma. The experiment in a line: Randomized clinical trial, vaginal capsules of example 4 (10 mg ALA) vs. progesterone and untreated controls: reabsorption of subchorionic hematoma, pelvic pain, vaginal bleeding, abortions. The assay is classed as in vivo, women. The conditions noted are these: for Pel. pain, 2nd visit / Vaginal bleeding, 2nd visit: 20 days after the first visit; for Pel. pain, 2nd visit: ALA p ≤ 0.05 vs the other two groups; for Vaginal bleeding, 2nd visit: no significant differences between the three groups; for Pel. pain, visit upon enrolment / Vaginal bleeding, visit upon enrolment: share of patients with symptom at enrolment (baseline); for Improvement (%) mean ± st. error (resorption of the subchorionic hematoma): vaginal, ALA 10 mg/day or progesterone 400 mg daily, ALA p ≤ 0.05 vs progesterone and control groups. Here is the method:
Randomized trial, vaginal capsules of example 4 vs. progesterone and placebo Number of participants: […] (27 medical device, 27 progesterone, 22 placebo)
In primigravid patients between the 7th and 12th week of gestation, the trial had the following objective: • evaluating whether the administration of 10 mg ALA vaginally is associated with the reabsorption of the subchorionic hematoma.
Reduction or disappearance of: • pelvic pain • vaginal bleeding
• Women aged 20-40 • Primigravid between 7th e and 12th weeks of gestation • Presence of pelvic pain • With or without moderate vaginal bleeding • Presence of the subchorionic hematoma detected by ultrasound
• Absence of the fetus • Absence of heartbeat • Presence of uterine abnormalities • Presence of fetal abnormalities • Presence of multiple pregnancies • Presence of pre-pregnancy or gestational abnormalities • Diagnosis of allergic reaction to progesterone • Presence of ongoing therapies with anticoagulants or antihypertensives • Presence of karyotypic abnormalities
The women enrolled to be treated with ALA or progesterone were randomized into 2 groups: • 27 were administered with vaginal capsules containing 10 mg ALA 1 per day until resolution of the clinical condition • 27 were administered with vaginal capsules containing 400 mg progesterone daily.
The women in the control group were those who refuse any medical treatment.
(§1) Three visits were scheduled: • 1) Enrolment • 2) 20 days after the first visit • 3) 60 days after the first visit
In each visit, a "blinded" operator carried out the ultrasound examination to evaluate the subchorionic hematoma and the subjective (pelvic pain) and objective (vaginal bleeding) symptoms were recorded.

In assay [2] the test system is primigravid patients with threat of spontaneous abortion. The assay is classed as in vivo, women. The conditions noted are these: 60 patients per group, vaginal, ALA 10 mg/day or progesterone 400 mg daily, p ≤ 0.05; for Absence of symptoms: post treatment. Here is the method: Randomized trial, vaginal capsules of example 4 vs. progesterone and placebo Number of participants: 120 (60 medical device, 60 progesterone)
In primigravid patients between the 7th and 12th week of gestation, the trial had the following objective: • evaluating whether the administration of 10mg ALA vaginally is associated with the reduction of the number of spontaneous abortions.
Reduction or disappearance of symptoms related to the risk of spontaneous abortion after therapy
• Absence of heartbeat • Presence of uterine abnormalities • Presence of fetal abnormalities • Presence of multiple pregnancies • Presence of pre-pregnancy or gestational abnormalities • Diagnosis of allergic reaction to progesterone • Presence of ongoing therapies with anticoagulants or antihypertensives • Presence of karyotypic abnormalities
The women enrolled to be treated with ALA or progesterone were randomized into 2 groups: • 60 were administered with vaginal capsules containing 10 mg ALA 1 per day until resolution of the clinical condition • 60 were administered with vaginal capsules containing 400 mg progesterone daily.
as §1

Assay [3] has as its system primigravid patients with subchorionic hematoma. The assay can be described thus: Randomized clinical trial, vaginal capsules of example 4 (10 mg ALA) vs. progesterone and untreated controls: reabsorption of subchorionic hematoma, pelvic pain, vaginal bleeding, abortions. It counts as in vivo, women. Particulars: number of abortions per group (27 patients each); ALA p ≤ 0.05 vs progesterone and control groups.

Assay [4] deals with fragments of amniochorial membranes. The conditions noted are these: pre-treatment with ALA; cited from earlier work.

As for `O=C(O)CCCCC1CCSS1` (stereo not drawn) [ALA, α-lipoic acid], in assay [1], the “Pel. pain, 2nd visit” value came out at 0%; the “Vaginal bleeding, 2nd visit” value came out at 0%; the “Pel. pain, visit upon enrolment” value worked out at 100%; the “Vaginal bleeding, visit upon enrolment” value worked out at 54%. Moreover, in assay [1], the “Improvement (%) mean ± st. error (resorption of the subchorionic hematoma)” value amounted to 83.9 ± 3.9%. Besides, in assay [2], the Abortion is 15% and the Absence of symptoms is 85%. This molecule also registered a Spontaneous abortions in assay [3] of 3. In assay [4], the “release of MMP9 and cytokine-induced prostaglandin E2” value is reported as “able to inhibit”; the “weakening of membranes induced by TNF” value is listed as “able to inhibit”.

For the molecule `CC(=O)[C@H]1CC[C@H]2[C@@H]3CCC4=CC(=O)CC[C@]4(C)[C@H]3CC[C@]12C` [Progesterone, reference compound], in assay [1], the “Pel. pain, 2nd visit” value amounted to 14%; the “Vaginal bleeding, 2nd visit” value is on record as 0%; the “Pel. pain, visit upon enrolment” value was 100%; the “Vaginal bleeding, visit upon enrolment” value is on record as 57%. Further, the “Improvement (%) mean ± st. error (resorption of the subchorionic hematoma)” value in assay [1] stood at 49.7 ± 2.7%. In assay [2], the Abortion turned out to be 25% and the Absence of symptoms was 75%. This molecule showed a Spontaneous abortions in assay [3] of 6.

Values taken from patent EP3244885B1, “LIPOIC ACID FOR TREATING OR PREVENTING THREATENED MISCARRIAGE OR PRETERM DELIVERY” (priority 2015, dated 2016).
